Results on 18 molecules are retold here after patent US8202902B2, “Bivalent SMAC mimetics and the uses thereof” (The Regents of the University of Michigan, priority 2006, dated 2012).

A word on the IC50: it is the concentration that inhibits the measured activity by half. One may read the Kd as the equilibrium constant for the complex coming apart.

Residues, ends and D or L forms follow the SMILES beside them. *: point of attachment. Cbz = O=C(OCc1ccccc1)*; CH2F = FC*

The test system of assay [1] is cIAP-1 in cancer cell lines. The assay can be described thus: Induction of cIAP-1 degradation in cancer cells. The class given is cell-based. The note with it: sensitive and resistant cancer cell lines.
Assay [2] has as its target T1, human XIAP protein (residues 120-356) (Homo sapiens, UniProt P98170).
T1 construct: human XIAP protein (residues 120-356) (10 nM)
The assay can be described thus: Fluorescence-polarization-based binding assay to XIAP protein (Smac2-F tracer). As to conditions: read-out: Binding to XIAP IC50 values. The method, then: The polarization values were measured after 2 hours incubation, using the Ultra plate reader. […] Curve fitting is performed using GraphPad Prism® software.

The subject of assay [3] is XIAP, cIAP-1, and cIAP-2 proteins. The assay can be described thus: Fluorescence-polarization based binding of control compounds to IAP proteins. The protocol: Therefore binding affinities of Smac mimetics to cIAP-2 BIR3-only protein were evaluated.
The target of assay [4] is T2, Recombinant XIAP containing linker-BIR2-BIR3 (residues 120-356) (Homo sapiens, UniProt P98170).
T2 construct: Recombinant XIAP containing linker-BIR2-BIR3 (residues 120-356)
T2 sequence (P98170 120-356): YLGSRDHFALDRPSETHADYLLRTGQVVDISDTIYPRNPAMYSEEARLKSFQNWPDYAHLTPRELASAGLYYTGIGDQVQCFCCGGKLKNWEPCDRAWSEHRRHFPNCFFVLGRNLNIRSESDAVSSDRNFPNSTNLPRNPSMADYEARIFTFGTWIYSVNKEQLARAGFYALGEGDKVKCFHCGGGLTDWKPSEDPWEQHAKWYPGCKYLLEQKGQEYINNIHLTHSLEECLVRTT
Description: Cell-free functional assay: antagonism of XIAP inhibition of caspase-3/-7. The assay is classed as biochemical. As to conditions: up to 100 μM.

For assay [5], the system named is MDA-MB-231 human breast cancer cell line. The assay can be described thus: Cell growth inhibition, WST-8 assay, MDA-MB-231. The class given is cell-based. As to conditions: MDA-MB-231, read-out: IC50 values (nM) In WST-assay (MDA-MB-231). The method, then: (§1) The rate of cell growth inhibition after treatment with different concentrations of the compound was determined using a WST-8 kit (2-(2-methoxy-4-nitrophenyl)-3-(4-nitrophenyl)-5-(2, 4 disulfophenyl)-2H-tetrazolium monosodium salt; Dojindo Molecular Technologies, Inc., Gaithersburg, Md.). WST-8 was added at a final concentration of 10% to each well, and then the plates were incubated at 37° C. for 2-3 hrs. The absorbance of the samples was measured at 450 nm using a ULTRA Tecan Reader (Molecular Device).
Background: Tetrazolium dyes change colour on reduction, which living cells bring about.

In another assay the test system is SK-OV-3. Description: Cell growth inhibition, WST assay, SK-OV-3. The assay is classed as cell-based. The note with it: Homo sapiens. The method, then:
as §1, with “Cells were seeded in 96-well flat bottom cell culture plates at a density of 3000 cells/well with a tested compound and incubated at 37° C. in an atmosphere of 95% air and 5% CO2 for 4 days. The rate” for “The rate”

Assay [6] addresses T3, XIAP BIR3 protein of human XIAP (residues 241-356) (Homo sapiens, UniProt P98170).
T3 construct: human XIAP (residues 241-356) fused to His-tag; His-tag
The assay can be described thus: Fluorescence polarization (FP) based binding assay to XIAP BIR3. The note with it: read-out: Binding Affinities to XIAP BIR3 (IC50 [uM]). The text has this:
In order to test the binding ability of the bivalent Smac mimetics to IAP proteins, a sensitive and quantitative in vitro binding assay using the fluorescence polarization (FP) based method was developed and used to determine the binding affinity of Smac mimetics to XIAP protein (Nikolovska-Coleska et al., Anal Biochem. 332:261-73 (2004)). […] The recombinant XIAP BIR3 protein of human XIAP ([…]) fused to His-tag was stable and soluble, and was used for the FP based binding assay. The dose-dependent binding experiments were carried out with serial dilutions of the tested compounds in DMSO. […] Inc., Research Triangle Park, N.C.). […] Curve fitting was performed using […] PRISM software (GraphPad Software, Inc., San Diego, Calif.).

For assay [7], the system named is MDA-MB-231 and SK-OV-3 cancer cell lines. The assay can be described thus: Role of caspase-8, -3 and -9 (siRNA, caspase inhibitors) in activity of Smac mimetics. The assay is classed as cell-based. The text has this:
To examine the role of caspase-8, -3 and -9 in apoptosis induction by Smac mimetics, siRNA was employed against these caspases in MDA-MB-231 and SK-OV-3 cancer cell lines.

Assay [8] relates to MDA-MB-231 xenograft model. The assay can be described thus: Inhibition of tumor growth in the MDA-MB-231 xenograft model. The class given is in vivo, mice. As to conditions: 7.5 mg/kg. The protocol:
SM-164 was evaluated for its ability to inhibit tumor growth. […] Treatment with SM-164 at 5 mg/kg reduces the tumor volume from 147±54 mm^3 at the beginning of the treatment (day 25) to 54±32 mm^3 at the end of the treatment (day 36), a reduction of 65%. The strong antitumor activity by SM-164 is long lasting and not transient.

In assay [9] the test system is MDA-MB-231 (2LMP) breast cancer cells. The assay can be described thus: Cell growth inhibition by TRAIL alone or with Smac mimetic, MDA-MB-231 (2LMP). The assay is classed as cell-based, human. The method, then: as §1
(§2) To test the ability of bivalent Smac mimetics to sensitize cancer cells to the growth inhibiting effects of other agents, cell growth inhibition assays were carried out with various agents alone or in combination with increasing doses of bivalent Smac mimetics.

The subject of assay [10] is MDA-MB-453 breast cancer cells. The assay can be described thus: Cell growth inhibition by TRAIL alone or with Smac mimetic, MDA-MB-453. The assay is classed as cell-based. The protocol:
as §1, §2

For assay [11], the system named is PC-3 human prostate cancer cells. Description: Cell growth inhibition by TRAIL alone or with Smac mimetic, PC-3. The assay is classed as cell-based. The protocol:
as §1, §2

The target in the next assay is XIAP (Homo sapiens, UniProt P98170). The note with it: cited from earlier work.
Chain of XIAP (P98170 whole entry): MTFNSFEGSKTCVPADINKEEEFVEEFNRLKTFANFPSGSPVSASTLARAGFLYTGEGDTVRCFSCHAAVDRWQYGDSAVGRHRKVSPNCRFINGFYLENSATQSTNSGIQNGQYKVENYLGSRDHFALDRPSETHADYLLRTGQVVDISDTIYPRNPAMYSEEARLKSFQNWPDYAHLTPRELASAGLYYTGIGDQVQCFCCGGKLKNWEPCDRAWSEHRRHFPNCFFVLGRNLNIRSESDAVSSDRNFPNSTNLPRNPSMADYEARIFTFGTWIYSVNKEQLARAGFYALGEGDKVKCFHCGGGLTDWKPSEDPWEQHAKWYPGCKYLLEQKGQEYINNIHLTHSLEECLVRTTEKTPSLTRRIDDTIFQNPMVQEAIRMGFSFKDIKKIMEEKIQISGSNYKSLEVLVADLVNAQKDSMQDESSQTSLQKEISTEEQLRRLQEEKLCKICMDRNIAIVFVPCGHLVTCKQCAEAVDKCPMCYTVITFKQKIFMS

T3 sequence (P98170 241-356): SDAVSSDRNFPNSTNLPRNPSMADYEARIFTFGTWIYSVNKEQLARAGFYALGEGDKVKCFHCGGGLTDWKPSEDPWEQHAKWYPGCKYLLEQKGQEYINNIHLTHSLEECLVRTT
T1 sequence (P98170 120-356): as the sequence (P98170 120-356) above

For the molecule `CC(C)C[C@@H](C=O)NC(=O)[C@H](CC(C)C)NC(=O)[C@H](CC(C)C)NC(=O)OCc1ccccc1` [MG-132, reference compound] (Cbz-Leu-Leu-Leu-aldehyde), in assay [1], the “effect of proteasome inhibitor on cIAP-1 degradation by SM-122 and SM-164” value is given as “effectively blocked cIAP-1 degradation”.

With `CC(=O)NC(Cc1c[nH]c2ccccc12)C(=O)NC1CCCCC2CCC(C(=O)NC(c3ccccc3)c3cn(CCCCc4ccc(CCCCn5cc(C(NC(=O)C6CCC7CCCCC(NC(=O)C(Cc8c[nH]c9ccccc89)NC(C)=O)C(=O)N76)c6ccccc6)nn5)cc4)nn3)N2C1=O` (stereo not shown) [SH-173], the IC50 in assay [2] is more than 10000 nM. The “less potent than SM-164 to these IAP proteins” value in assay [3] came out at 1000 times. Further, the “effect in the functional assay” value in assay [4] is reported as “minimal effect”.

Turning to `CN[C@@H](C)C(=O)N[C@H]1CCCC[C@H]2CC[C@@H](C(=O)N[C@@H](c3ccccc3)c3ccc(CCCNC(=S)NCCCc4ccc([C@@H](NC(=O)[C@@H]5CC[C@@H]6CCCC[C@H](NC(=O)[C@@H](C)NC)C(=O)N65)c5ccccc5)cc4)cc3)N2C1=O` [SH-189], the IC50 (in [2]; in assay [5]; in the assay with SK-OV-3) was less than 100 nM in each case.

With `CN[C@@H](C)C(=O)N[C@H]1CCCC[C@H]2CC[C@@H](C(=O)N[C@@H](c3ccccc3)c3ccc(CCCCNC(=O)NCCCCc4ccc([C@@H](NC(=O)[C@@H]5CC[C@@H]6CCCC[C@H](NC(=O)[C@H](C)NC)C(=O)N65)c5ccccc5)cc4)cc3)N2C1=O` [SH-190], the values for the IC50 (in [2]; in assay [5]; in the assay with SK-OV-3) were less than 100 nM, less than 10 nM and less than 10 nM, respectively.

As for `CN[C@@H](C)C(=O)N[C@H]1CCCC[C@H]2CC[C@@H](C(=O)N[C@@H](c3ccccc3)c3cn(CCCCCOCCCCn4cc([C@@H](NC(=O)[C@@H]5CC[C@@H]6CCCC[C@H](NC(=O)[C@H](C)NC)C(=O)N65)c5ccccc5)nn4)nn3)N2C1=O` [SH-198], the concentration for half-maximal inhibition (IC50) in assay [2] was less than 100 nM; in [5], less than 10 nM; in the assay on SK-OV-3, less than 10 nM.

For the molecule `CN[C@@H](C)C(=O)N[C@H]1CCCC[C@H]2CCC(C(=O)N[C@H](COCCCCCCCCCCCCOC[C@@H](NC(=O)[C@@H]3CC[C@@H]4CCCC[C@H](NC(=O)[C@H](C)NC)C(=O)N43)c3ccccc3)c3ccccc3)N2C1=O` (stereo partly shown) [SH-202], the results for the IC50 (in assay [2]; in [5]; in the assay with SK-OV-3) were less than 100 nM, less than 10 nM and less than 10 nM, respectively.

Take `CN[C@@H](C)C(=O)N[C@H]1CN(C(=O)Cc2ccc(F)cc2)CC[C@H]2CC[C@@H](C(=O)NCc3ccc(F)cc3)N2C1=O` [SM-402]: the IC50 in assay [6] was less than 0.1 µM.

As to `CN[C@@H](C)C(=O)N[C@H]1CN(C(=O)CCc2ccc(F)cc2)CC[C@H]2CC[C@@H](C(=O)NC(c3ccc(F)cc3)c3ccc(F)cc3)N2C1=O` [SM-404], the IC50 in assay [6] was less than 0.1 µM.

For `CN[C@@H](C)C(=O)N[C@H]1CN(C(=O)CC2CCCC2)CC[C@H]2CC[C@@H](C(=O)NC(c3ccccc3)c3ccccc3)N2C1=O` [SM-405], the IC50 in assay [6] was less than 0.1 µM.

Turning to `CN[C@@H](C)C(=O)N[C@H]1CN(C(=O)CC(C)C)CC[C@H]2CC[C@@H](C(=O)NC(c3ccccc3)c3ccccc3)N2C1=O` [SM-406], the IC50 in assay [6] was less than 0.1 µM.

For `CN[C@@H](C)C(=O)N[C@H]1CN(C(=O)CCc2ccc(F)cc2)CC[C@H]2CC[C@@H](C(=O)NC(c3ccccc3)c3ccccc3)N2C1=O` [SM-407], in [6], the IC50 is less than 0.1 µM.

Regarding `CN[C@@H](C)C(=O)N[C@H]1CN(C(=O)CCc2ccccc2)CC[C@H]2CC[C@@H](C(=O)NC(c3ccccc3)c3ccccc3)N2C1=O` [SM-408], the half-maximal inhibitory concentration (IC50) in assay [6] is less than 0.1 µM.

`CCCC(=O)N1CC[C@H]2CC[C@@H](C(=O)NC(c3ccccc3)c3ccccc3)N2C(=O)[C@@H](NC(=O)[C@H](C)NC)C1` [SM-409]: the IC50 in assay [6] was less than 0.1 µM.

As for `COC(=O)CC[C@H](NC(=O)[C@H](CC(=O)OC)NC(=O)OCc1ccccc1)C(=O)N[C@H](C(=O)N[C@@H](CC(=O)OC)C(=O)CF)C(C)C` [Z-DEVD-FMK, reference compound], the “effect of caspase inhibitor on the activity of both Smac mimetics (SM-164, SM-122)” value in [7] is listed as “markedly inhibited”.

As to `CC[C@H](C)[C@H](NC(=O)OCc1ccccc1)C(=O)N[C@@H](CCC(=O)OC)C(=O)N[C@H](C(=O)N[C@@H](CC(=O)OC)C(=O)CF)[C@@H](C)O` [Z-IETD-FMK, reference compound] (Cbz-IE(OMe)TD(OMe)-CH2F), the “effect of caspase inhibitor on the activity of both Smac mimetics (SM-164, SM-122)” value in assay [7] was “markedly inhibited”.

`CC(=O)O[C@@]12CO[C@@H]1C[C@H](O)[C@@]1(C)C(=O)[C@H](O)C3=C(C)[C@@H](OC(=O)[C@H](O)[C@@H](NC(=O)OC(C)(C)C)c4ccccc4)C[C@@](O)([C@@H](OC(=O)c4ccccc4)[C@H]21)C3(C)C` [taxotere, reference compound]: in assay [8], the “inhibition of tumor growth compared to control” value is on record as “effective in inhibition of tumor growth” and the tumor regression result is given as “failed to achieve tumor regression”.

Turning to “TRAIL: tumor necrosis factor-related apoptosis-inducing ligand”, the “IC50 of TRAIL alone” value in assay [9] was 0.0022 µg/mL; in assay [10], more than 1 µg/mL; in [11], more than 0.3 µg/mL.

B1: mature Smac protein: mature Smac protein, endogenous inhibitor of XIAP (protein, UniProt Q9NR28 22-239, looked up)
Diablo IAP-binding …: LCVPVVANFKKRCFSELIRPWHKTVTIGFGVTLCAVPIAQKSEPHSLSSEALMRRAVSLVTDSTSTFLSQTTYALIEAITEYTKAVYTLTSLYRQYTSLLGKMNSEEEDEVWQVIIGARAEMTSKHQEYLKLETTWMTAVGLSEMAAEAAYQTGADQASITARNHIQLVKLQVEEVHQLSRKAETKLAEAQIEELRQKTQEEGEERAESEQEAYLRED
Regarding B1, the Kd in the assay with XIAP was 420 nM.
